Measurements published in patent publication US11452717B2, “Small molecule activators of nicotinamide phosphoribosyltransferase (NAMPT) and uses thereof” (Sanford Burnham Prebys Medical Discovery Institute, priority 2017, dated 2022).
pEC50: −log10 of the molar value. Each block holds one compound with its values, some of them ahead of it.

Biological target: NAMPT enzyme (Homo sapiens (Human), UniProt P43490)
Test: Enzyme Assay and NMN Detection (NAMPT reaction, fluorescence detection of NMN)
Type: biochemical
Details: NAMPT activation, NMN formation
Protocol: NAMPT reaction was performed in 50 mM HEPES, pH 7.5, containing 5 mM MgCl2, 0.1% Prionex, 0.005% Tween 20, and 1 mM TCEP at room temperature in Greiner 384-well black polypropylene plates. The concentration of substrates and enzymes in the final assay were as follows: ATP (120 uM), nicotinamide (5 uM), phosphoribosylpyrophosphate (6.25 uM), NAMPT enzyme (16 nM), pyrophosphatase (0.04 U/ml) in the final reaction volume 6 uL. Following 2 h incubation the reaction was stopped by addition 2.5 ul 20% acetophenone in dimethyl sulfoxide (DMSO) and 2.5 ul 2 MKOH. Plates were centrifuges and added with 10.5 ul 88% formic acid. The fluorescence (ex380/em460) was measured following another short incubation and 30 min incubation. The increased concentration of NMN was determined from a calibration curve obtained at the time of experiment.

Sequence of NAMPT enzyme (P43490 whole entry, species assumed): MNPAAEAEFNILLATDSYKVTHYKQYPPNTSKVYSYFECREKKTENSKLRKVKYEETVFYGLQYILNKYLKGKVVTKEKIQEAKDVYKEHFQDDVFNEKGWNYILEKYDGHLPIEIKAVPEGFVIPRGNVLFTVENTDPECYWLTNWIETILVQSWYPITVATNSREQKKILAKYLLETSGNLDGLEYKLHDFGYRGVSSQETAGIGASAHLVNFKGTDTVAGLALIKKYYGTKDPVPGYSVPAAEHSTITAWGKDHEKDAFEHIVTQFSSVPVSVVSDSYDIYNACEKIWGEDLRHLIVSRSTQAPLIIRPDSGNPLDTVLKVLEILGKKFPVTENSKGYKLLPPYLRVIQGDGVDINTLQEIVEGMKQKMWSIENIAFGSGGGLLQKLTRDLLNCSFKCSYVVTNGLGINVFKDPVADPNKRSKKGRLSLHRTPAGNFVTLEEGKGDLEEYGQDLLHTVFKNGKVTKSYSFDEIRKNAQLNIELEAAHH

pEC50 (Table B-3): < 4.70
Compound: O=C(NCc1ccccn1)Nc1ccc(Cl)cc1 [1-(4-Chlorophenyl)-3-(pyridin-2-ylmethyl)urea]

pEC50 (Table B-3): < 4.70
Compound: O=C(NCc1cccnc1)Nc1ccc(Cl)cc1 [1-(4-Chlorophenyl)-3-(pyridin-3-ylmethyl)urea]

pEC50 (Table B-2): 4.70 to 5.30
Compound: O=C(NCc1ccncc1)Nc1ccc(Cl)cc1 [1-(4-Chlorophenyl)-3-(pyridin-4-ylmethyl)urea]

pEC50 (Table B-5): > 7.00
Compound: O=C(NCc1cnco1)Nc1ccc(NS(=O)(=O)Cc2ccc(Cl)cc2)cc1 [1-(4-Chlorophenyl)-N-(4-(3-(oxazol-5-ylmethyl)ureido)phenyl)methanesulfonamide]

pEC50 (Table B-4): 5.70 to 7.00
Compound: O=C(NCc1cn[nH]c1)Nc1ccc(S(=O)(=O)C2CCCCC2)cc1 [1-(4-Cyclohexanesulfonyl-phenyl)-3-(1H-pyrazol-4-ylmethyl)-urea]

pEC50 (Table B-6): 5.70 to 7.00
Compound: O=C(NCc1ccncc1)Nc1ccc(S(=O)(=O)C2CCCCC2)cc1 [1-(4-Cyclohexanesulfonyl-phenyl)-3-pyridin-4-ylmethyl-urea]

pEC50 (Table B-3): < 4.70
Compound: O=C(NCc1ccccn1)Nc1ccc(F)cc1 [1-(4-Fluorophenyl)-3-(pyridin-2-ylmethyl)urea]

pEC50 (Table B-3): < 4.70
Compound: O=C(NCc1cccnc1)Nc1ccc(F)cc1 [1-(4-Fluorophenyl)-3-(pyridin-3-ylmethyl)urea]

pEC50 (Table B-2): < 4.70
Compound: O=C(NCc1ccncc1)Nc1ccc(F)cc1 [1-(4-Fluorophenyl)-3-(pyridin-4-ylmethyl)urea]

pEC50 (Table B-3): < 4.70
Compound: COc1ccc(NC(=O)NCc2ccccn2)cc1 [1-(4-Methoxyphenyl)-3-(pyridin-2-ylmethyl)urea]

pEC50 (Table B-3): < 4.70
Compound: COc1ccc(NC(=O)NCc2cccnc2)cc1 [1-(4-Methoxyphenyl)-3-(pyridin-3-ylmethyl)urea]

pEC50 (Table B-2): < 4.70
Compound: COc1ccc(NC(=O)NCc2ccncc2)cc1 [1-(4-Methoxyphenyl)-3-(pyridin-4-ylmethyl)urea]

pEC50 (Table B-2): 5.30 to 5.70
Compound: O=C(NCc1ccncc1)Nc1ccc(S(=O)(=O)Cc2ccccc2)cc1 [1-(4-Phenylmethanesulfonyl-phenyl)-3-pyridin-4-ylmethyl-urea]

pEC50 (Table B-2): > 7.00
Compound: O=C(NCc1ccncc1)Nc1ccc(NS(=O)(=O)Cc2ccc(Cl)cc2)cc1 [1-(4-chlorophenyl)-N-(4-(3-(pyridin-4-ylmethyl)ureido)phenyl)methanesulfonamide]

pEC50 (Table B-5): 5.30 to 5.70
Compound: O=C(NCc1cnco1)Nc1ccc(S(=O)(=O)C2CCCCC2)cc1 [1-(4-cyclohexanesulfonyl-phenyl)-3-oxazol-5-ylmethyl-urea]

pEC50 (Table B-4): 5.70 to 7.00
Compound: Cc1cccc2c1c(-c1ccc(NC(=O)NCc3cn[nH]c3)cc1)nn2C [1-((1H-Pyrazol-4-yl)methyl)-3-(4-(1,4-dimethyl-1H-indazol-3-yl)phenyl)urea]

Second part, the compound before the results:

Compound: O=C(NCc1cnco1)Nc1ccc(S(=O)(=O)c2cn[nH]c2)cc1 [1-(4-((1H-pyrazol-4-yl)sulfonyl)phenyl)-3-(oxazol-5-ylmethyl)urea]
pEC50 (Table B-5): 5.70 to 7.00

Compound: O=C(NCc1ccncc1)Nc1ccc(S(=O)(=O)c2cn[nH]c2)cc1 [1-(4-((1H-pyrazol-4-yl)sulfonyl)phenyl)-3-(pyridin-4-ylmethyl)urea]
pEC50 (Table B-6): 5.70 to 7.00

Compound: COc1ccc(-c2ccccc2S(=O)(=O)c2ccc(NC(=O)NCc3ccncc3)cc2)cn1 [1-(4-((2-(6-Methoxypyridin-3-yl)phenyl)sulfonyl)phenyl)-3-(pyridin-4-ylmethyl)urea]
pEC50 (Table B-6): 4.70 to 5.30

Compound: O=C(NCc1cnco1)Nc1ccc(S(=O)(=O)c2ccccc2F)cc1 [1-(4-((2-Fluorophenyl)sulfonyl)phenyl)-3-(oxazol-5-ylmethyl)urea]
pEC50 (Table B-5): 5.70 to 7.00

Compound: O=C(NCc1ccncc1)Nc1ccc(S(=O)(=O)c2ccccc2F)cc1 [1-(4-((2-Fluorophenyl)sulfonyl)phenyl)-3-(pyridin-4-ylmethyl)urea]
pEC50 (Table B-6): 5.70 to 7.00

Compound: COc1ccccc1S(=O)(=O)c1ccc(NC(=O)NCc2cnco2)cc1 [1-(4-((2-Methoxyphenyl)sulfonyl)phenyl)-3-(oxazol-5-ylmethyl)urea]
pEC50 (Table B-5): 5.70 to 7.00

Compound: O=C(NCc1ccncc1)Nc1ccc(S(=O)(=O)c2ccccc2-c2ccccc2Cl)cc1 [1-(4-((2′-Chloro-[1,l′-biphenyl]-2-yl)sulfonyl)phenyl)-3-(pyridin-4-ylmethyl)urea]
pEC50 (Table B-6): 5.70 to 7.00

Compound: Cc1ccccc1-c1ccccc1S(=O)(=O)c1ccc(NC(=O)NCc2ccncc2)cc1 [1-(4-((2′-Methyl-[1,l′-biphenyl]-2-yl)sulfonyl)phenyl)-3-(pyridin-4-ylmethyl)urea]
pEC50 (Table B-6): 5.70 to 7.00

Compound: O=C(NCc1cnco1)Nc1ccc(S(=O)(=O)c2cccc(Cl)c2)cc1 [1-(4-((3-Chlorophenyl)sulfonyl)phenyl)-3-(oxazol-5-ylmethyl)urea]
pEC50 (Table B-5): > 7.00

Compound: O=C(NCc1cnco1)Nc1ccc(S(=O)(=O)c2cccc(F)c2)cc1 [1-(4-((3-Fluorophenyl)sulfonyl)phenyl)-3-(oxazol-5-ylmethyl)urea]
pEC50 (Table B-5): 5.70 to 7.00

Compound: O=C(NCc1ccncc1)Nc1ccc(S(=O)(=O)c2cccc(F)c2)cc1 [1-(4-((3-Fluorophenyl)sulfonyl)phenyl)-3-(pyridin-4-ylmethyl)urea]
pEC50 (Table B-6): > 7.00

Compound: N#Cc1cccc(-c2ccccc2S(=O)(=O)c2ccc(NC(=O)NCc3ccncc3)cc2)c1 [1-(4-((3′-Cyano-[1,1′-biphenyl]-2-yl)sulfonyl)phenyl)-3-(pyridin-4-ylmethyl)urea]
pEC50 (Table B-6): 5.30 to 5.70

Compound: O=C(NCc1cnco1)Nc1ccc(S(=O)(=O)c2ccc(Cl)cc2)cc1 [1-(4-((4-Chlorophenyl)sulfonyl)phenyl)-3-(oxazol-5-ylmethyl)urea]
pEC50 (Table B-5): 5.70 to 7.00

Compound: O=C(NCc1cnco1)Nc1ccc(S(=O)(=O)c2ccc(F)cc2)cc1 [1-(4-((4-Fluorophenyl)sulfonyl)phenyl)-3-(oxazol-5-ylmethyl)urea]
pEC50 (Table B-5): 5.70 to 7.00

Compound: O=C(NCc1ccncc1)Nc1ccc(S(=O)(=O)c2ccc(F)cc2)cc1 [1-(4-((4-Fluorophenyl)sulfonyl)phenyl)-3-(pyridin-4-ylmethyl)urea]
pEC50 (Table B-6): 5.70 to 7.00

Compound: O=C(NCc1ccncc1)Nc1ccc(Nc2nc(-c3ccccc3)cs2)cc1 [1-(4-((4-Phenylthiazol-2-yl)amino)phenyl)-3-(pyridin-4-ylmethyl)urea]
pEC50 (Table B-6): 5.70 to 7.00

Compound: N#Cc1ccc(-c2ccccc2S(=O)(=O)c2ccc(NC(=O)NCc3ccncc3)cc2)cc1 [1-(4-((4′-Cyano-[1,l′-biphenyl]-2-yl)sulfonyl)phenyl)-3-(pyridin-4-ylmethyl)urea]
pEC50 (Table B-6): 4.70 to 5.30

Compound: O=C(NCc1ccncc1)Nc1ccc(Nc2ncc(-c3ccccc3)s2)cc1 [1-(4-((5-Phenylthiazol-2-yl)amino)phenyl)-3-(pyridin-4-ylmethyl)urea]
pEC50 (Table B-6): 4.70 to 5.30

Compound: O=C(NCc1cnco1)Nc1ccc(-c2nc3ccccc3s2)cc1 [1-(4-(Benzo[d]thiazol-2-yl)phenyl)-3-(oxazol-5-ylmethyl)urea]
pEC50 (Table B-5): 4.70 to 5.30

Compound: O=C(NCc1ccncc1)Nc1ccc(-c2nc3ccccc3s2)cc1 [1-(4-(Benzo[d]thiazol-2-yl)phenyl)-3-(pyridin-4-ylmethyl)urea]
pEC50 (Table B-6): 4.70 to 5.30

Compound: O=C(NCc1cnco1)Nc1ccc(Nc2nc3ccccc3s2)cc1 [1-(4-(Benzo[d]thiazol-2-ylamino)phenyl)-3-(oxazol-5-ylmethyl)urea]
pEC50 (Table B-5): 4.70 to 5.30

Compound: O=C(NCc1ccncc1)Nc1ccc(C(=O)N2Cc3ccccc3C2)cc1 [1-(4-(Isoindoline-2-carbonyl)phenyl)-3-(pyridin-4-ylmethyl)urea]
pEC50 (Table B-2): < 4.70

Compound: O=C(NCc1ccncc1)Nc1ccc(C(=O)N2CCOCC2)cc1 [1-(4-(Morpholine-4-carbonyl)phenyl)-3-(pyridin-4-ylmethyl)urea]
pEC50 (Table B-2): 4.70 to 5.30

Compound: O=C(NCc1ccncc1)Nc1ccc(C(=O)N2CCCCC2)cc1 [1-(4-(Piperidine-1-carbonyl)phenyl)-3-(pyridin-4-ylmethyl)urea]
pEC50 (Table B-2): 4.70 to 5.30

Compound: O=C(NCc1ccncc1)Nc1ccc(S(=O)(=O)c2ccccn2)cc1 [1-(4-(Pyridin-2-ylsulfonyl)phenyl)-3-(pyridin-4-ylmethyl)urea]
pEC50 (Table B-6): 5.70 to 7.00

Compound: O=C(NCc1cnco1)Nc1ccc(S(=O)(=O)c2ccccc2-c2ccccc2)cc1 [1-(4-([1,1′-Biphenyl]-2-ylsulfonyl)phenyl)-3-(oxazol-5-ylmethyl)urea]
pEC50 (Table B-5): > 7.00

Compound: O=C(NCc1ccncc1)Nc1ccc(S(=O)(=O)c2ccccc2-c2ccccc2)cc1 [1-(4-([1,1′-Biphenyl]-2-ylsulfonyl)phenyl)-3-(pyridin-4-ylmethyl)urea]
pEC50 (Table B-6): 5.70 to 7.00

Compound: O=C(NCc1cnco1)Nc1ccc(S(=O)(=O)c2cccc(-c3ccccc3)c2)cc1 [1-(4-([1,1′-Biphenyl]-3-ylsulfonyl)phenyl)-3-(oxazol-5-ylmethyl)urea]
pEC50 (Table B-5): 5.70 to 7.00

Compound: O=C(NCc1cn[nH]c1)Nc1ccc(S(=O)(=O)c2ccccc2)cc1 [1-(4-Benzenesulfonyl-phenyl)-3-(1H-pyrazol-4-ylmethyl)-urea]
pEC50 (Table B-1): > 7.00

Compound: O=C(NCc1cnco1)Nc1ccc(S(=O)(=O)c2ccccc2)cc1 [1-(4-Benzenesulfonyl-phenyl)-3-oxazol-5-ylmethyl-urea]
pEC50 (Table B-1): > 7.00

Compound: O=C(NCc1ccncc1)Nc1ccc(S(=O)(=O)c2ccccc2)cc1 [1-(4-Benzenesulfonyl-phenyl)-3-pyridin-4-ylmethyl-urea]
pEC50 (Table B-2): > 7.00

Compound: O=C(NCc1cn[nH]c1)Nc1ccc(-c2cccc3scnc23)cc1 [1-(4-Benzothiazol-4-yl-phenyl)-3-(1H-pyrazol-4-ylmethyl)-urea]
pEC50 (Table B-4): 5.70 to 7.00

Compound: O=C(NCc1cnco1)Nc1ccc(-c2cccc3scnc23)cc1 [1-(4-Benzothiazol-4-yl-phenyl)-3-oxazol-5-ylmethyl-urea]
pEC50 (Table B-5): 5.70 to 7.00

Compound: O=C(NCc1ccncc1)Nc1ccc(-c2cccc3scnc23)cc1 [1-(4-Benzothiazol-4-yl-phenyl)-3-pyridin-4-ylmethyl-urea]
pEC50 (Table B-6): 5.70 to 7.00
